According to patent US12606541B2, “PPARg modulators and methods of use” (Eisai R&D Management Co., Ltd., priority 2020, dated 2026):

Biological target: T1, His6-TEV-PPARγ-(234-505) (Homo sapiens, UniProt P37231)
T1 construct: The His6-TEV-PPARγ-(234-505) protein for assay was expressed and purified; TEV cleavage site (N); made in house
T1 sequence (P37231 234-505): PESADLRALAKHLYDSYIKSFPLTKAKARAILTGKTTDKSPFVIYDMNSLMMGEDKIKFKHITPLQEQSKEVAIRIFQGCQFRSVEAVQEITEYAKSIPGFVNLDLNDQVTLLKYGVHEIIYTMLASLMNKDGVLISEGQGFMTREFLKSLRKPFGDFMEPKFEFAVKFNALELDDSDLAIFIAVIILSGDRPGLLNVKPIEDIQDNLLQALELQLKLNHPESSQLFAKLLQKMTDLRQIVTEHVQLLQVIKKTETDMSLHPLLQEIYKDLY
Test: TR-FRET Assay to Measure Co-R Peptide Recruitment to PPARγ
Assay type: biochemical
Conditions: Co-R peptide recruitment to PPARγ; read-out: TR-FRET AC50
Description: TR-FRET Assay to Measure Co—R Peptide Recruitment to PPARγ
The 2× detection solution contained anti-6×His-Terbium antibody (CisBio) and FITC labeled Co—R peptide (SMRT-ID2 from New England Peptide) at final concentrations of 5 and 200 nM respectively.
In these assay plates, the positive control in column 24 contained 500 nM (final) T0070907 and the negative control in column 23 contained an identical volume of DMSO. Then, 5 μL of 2+ protein working stock or controls were added to the plate and incubated for 20 minutes at room temperature. Reagents additions were performed with either a Combi (Thermo) or Mantis (Formulatory) pipetting device. The incubation was followed by addition of 5 μL of the 2× detection solution. Plates were covered, centrifuged, and incubated for an additional hour. The TR-FRET data was recorded with an Envision plate reader (Perkin Elmer), using settings recommended by Thermo Fisher. The TR-FRET signal of the positive and negative control's recruitment of FITC-Co—R peptide was used to normalize the TR-FRET signal to percent response and to determine the assay Z prime. Experiments were performed in triplicate and analyzed in GraphPad Prism 7.

| AC50 | Compound |
| --- | --- |
| > 1000 nM | Cc1cccc(C)c1NC(=O)C1CCN(C(=O)c2cc(-c3ccncc3)[nH]n2)CC1 [N-(2,6-dimethylphenyl)-1-[5-(pyridin-4-yl)-1H-pyrazole-3-carbonyl]piperidine-4-carboxamide] |
| > 1000 nM | COc1cc(-c2cc(C(=O)N3CCC(C(=O)NC4CCC(C)(O)CC4)CC3)n[nH]2)c(Cl)cn1 (stereo not shown) |
| > 1000 nM | O=C(NCc1ccccc1)C1CCN(C(=O)c2cc(-c3ccncc3)[nH]n2)CC1 [N-benzyl-1-[5-(pyridin-4-yl)-1H-pyrazole-3-carbonyl]piperidine-4-carboxamide] |
| > 1000 nM | CC1CCCCC1NC(=O)C1CCN(C(=O)c2cc(-c3ccncc3)[nH]n2)CC1 (stereo not shown) [N-(2-methylcyclohexyl)-1-[5-(pyridin-4-yl)-1H-pyrazole-3-carbonyl]piperidine-4-carboxamide] |
| > 1000 nM | CC1(NC(=O)C2CCN(C(=O)c3cc(-c4ccncc4)[nH]n3)CC2)CCOCC1 [N-(4-methyloxan-4-yl)-1-[5-(pyridin-4-yl)-1H-pyrazole-3-carbonyl]piperidine-4-carboxamide] |
| > 1000 nM | Cc1ccc([C@H](C)NC(=O)C2CCN(C(=O)c3cc(-c4ccncc4)[nH]n3)CC2)cc1 [N-[(1S)-1-(4-methylphenyl)ethyl]-1-[5-(pyridin-4-yl)-1H-pyrazole-3-carbonyl]piperidine-4-carboxamide] |
| > 1000 nM | COc1cc(-c2cc(C(=O)N3CCC(C(=O)NCC4(O)CC4)CC3)n[nH]2)c(Cl)cn1 [1-[5-(5-chloro-2-methoxypyridin-4-yl)-1H-pyrazole-3-carbonyl]-N-[(1-hydroxycyclopropyl)methyl]piperidine-4-carboxamide] |
| > 1000 nM | CC(CNC(=O)C1CCCN(C(=O)c2cc(-c3ccncc3)[nH]n2)C1)c1ccccc1 (stereo not shown) [N-(2-phenylpropyl)-1-[5-(pyridin-4-yl)-1H-pyrazole-3-carbonyl]piperidine-3-carboxamide] |
| > 1000 nM | O=C(c1cc(-c2ccncc2)[nH]n1)N1CCC(C(=O)N2CCN(CC(F)(F)F)CC2)CC1 [1-{1-[5-(pyridin-4-yl)-1H-pyrazole-3-carbonyl]piperidine-4-carbonyl}-4-(2,2,2-trifluoroethyl)piperazine] |
| > 1000 nM | COc1cc(-c2cc(C(=O)N3CCC(C(=O)Nc4nc(C)cnc4C)CC3)n[nH]2)c(Cl)cn1 [1-[5-(5-chloro-2-methoxypyridin-4-yl)-1H-pyrazole-3-carbonyl]-N-(3,6-dimethylpyrazin-2-yl)piperidine-4-carboxamide] |
| > 1000 nM | CCC1(O)CCC(NC(=O)C2CCN(C(=O)c3cc(-c4cc(OC)ncc4Cl)[nH]n3)CC2)CC1 (stereo not shown) [1-[5-(5-chloro-2-methoxypyridin-4-yl)-1H-pyrazole-3-carbonyl]-N-(4-ethyl-4-hydroxycyclohexyl)piperidine-4-carboxamide] |
| > 1000 nM | COCC1(C(=O)NCc2cccc(Cl)c2)CCN(C(=O)c2cc(-c3cc(OC)ncc3Cl)[nH]n2)CC1 [1-[5-(5-chloro-2-methoxypyridin-4-yl)-1H-pyrazole-3-carbonyl]-N-[(3-chlorophenyl)methyl]-4-(methoxymethyl)piperidine-4-carboxamide] |
| > 1000 nM | COc1cc(-c2cc(C(=O)N3CCC(C(=O)Nc4cc(C(F)(F)F)ccn4)CC3)n[nH]2)c(Cl)cn1 [1-[5-(5-chloro-2-methoxypyridin-4-yl)-1H-pyrazole-3-carbonyl]-N-[4-(trifluoromethyl)pyridin-2-yl]piperidine-4-carboxamide] |
| > 1000 nM | O=C(NCc1ccccc1Cl)C1CCN(C(=O)c2cc(-c3cccnc3)[nH]n2)CC1 [N-[(2-chlorophenyl)methyl]-1-[5-(pyridin-3-yl)-1H-pyrazole-3-carbonyl]piperidine-4-carboxamide] |
| > 1000 nM | Cc1csc(CNC(=O)C2CCN(C(=O)c3cc(-c4ccncc4)[nH]n3)CC2)c1 [N-[(4-methylthiophen-2-yl)methyl]-1-[5-(pyridin-4-yl)-1H-pyrazole-3-carbonyl]piperidine-4-carboxamide] |
| > 1000 nM | COc1cc(-c2cc(C(=O)N3CCC(C(=O)Nc4cnc5ccccn45)CC3)n[nH]2)c(Cl)cn1 [1-[5-(5-chloro-2-methoxypyridin-4-yl)-1H-pyrazole-3-carbonyl]-N-{imidazo[1,2-a]pyridin-3-yl}piperidine-4-carboxamide] |
| > 1000 nM | COc1cc(-c2cc(C(=O)N3CCC(C(=O)NC4(c5ccccc5)CC4)CC3)n[nH]2)c(F)cn1 [1-[5-(5-fluoro-2-methoxypyridin-4-yl)-1H-pyrazole-3-carbonyl]-N-(1-phenylcyclopropyl)piperidine-4-carboxamide] |
| > 1000 nM | COc1ccc(C)cc1CNC(=O)C1CCN(C(=O)c2cc(-c3ccncc3)[nH]n2)CC1 [N-[(2-methoxy-5-methylphenyl)methyl]-1-[5-(pyridin-4-yl)-1H-pyrazole-3-carbonyl]piperidine-4-carboxamide] |
| > 1000 nM | COc1cc(-c2cc(C(=O)N3CCC(C(=O)NCc4ncco4)CC3)n[nH]2)c(Cl)cn1 [1-[5-(5-chloro-2-methoxypyridin-4-yl)-1H-pyrazole-3-carbonyl]-N-[(1,3-oxazol-2-yl)methyl]piperidine-4-carboxamide] |
| > 1000 nM | CN1CCN(C(=O)C2CCN(C(=O)c3cc(-c4ccncc4)[nH]n3)CC2)CC1 |
| > 1000 nM | COc1c(Cl)cccc1CNC(=O)C1CCN(C(=O)c2cc(-c3ccncc3)[nH]n2)CC1 [N-[(3-chloro-2-methoxyphenyl)methyl]-1-[5-(pyridin-4-yl)-1H-pyrazole-3-carbonyl]piperidine-4-carboxamide] |
| > 1000 nM | COc1cc(-c2cc(C(=O)N3CCC(C(=O)NCc4cc(F)ccn4)CC3)n[nH]2)c(Cl)cn1 [1-[5-(5-chloro-2-methoxypyridin-4-yl)-1H-pyrazole-3-carbonyl]-N-[(4-fluoropyridin-2-yl)methyl]piperidine-4-carboxamide] |
| > 1000 nM | CC1CCC(NC(=O)C2CCN(C(=O)c3cc(-c4ccnc(C(F)(F)F)c4)[nH]n3)CC2)CC1 (stereo not shown) [N-(4-methylcyclohexyl)-1-{5-[2-(trifluoromethyl)pyridin-4-yl]-1H-pyrazole-3-carbonyl}piperidine-4-carboxamide] |
| > 1000 nM | COc1cc(-c2cc(C(=O)N3C[C@@H]4[C@H](C3)[C@H]4C(=O)NCc3cccc(Cl)c3)n[nH]2)c(F)cn1 |
| > 1000 nM | COc1cc(-c2cc(C(=O)N3CCC(C(=O)Nc4cnncc4Cl)CC3)n[nH]2)c(Cl)cn1 [1-[5-(5-chloro-2-methoxypyridin-4-yl)-1H-pyrazole-3-carbonyl]-N-(5-chloropyridazin-4-yl)piperidine-4-carboxamide] |
| > 1000 nM | O=C(NC1CC1)C1CCN(C(=O)c2cc(-c3ccncc3)[nH]n2)CC1 [N-cyclopropyl-1-[5-(pyridin-4-yl)-1H-pyrazole-3-carbonyl]piperidine-4-carboxamide] |
| > 1000 nM | COc1cc(-c2cc(C(=O)N3CCC(C(=O)NCc4ccn5ccnc5c4)CC3)n[nH]2)c(Cl)cn1 [1-[5-(5-chloro-2-methoxypyridin-4-yl)-1H-pyrazole-3-carbonyl]-N-({imidazo[1,2-a]pyridin-7-yl}methyl)piperidine-4-carboxamide] |
| > 1000 nM | COc1cc(-c2cc(C(=O)N3CCC(C(=O)NC45CC(F)(C4)C5)CC3)n[nH]2)c(Cl)cn1 [1-[5-(5-chloro-2-methoxypyridin-4-yl)-1H-pyrazole-3-carbonyl]-N-{3-fluorobicyclo[1.1.1]pentan-1-yl}piperidine-4-carboxamide] |
